Assay results taken from patent US20220002288A1, “MONOBACTAM COMPOUNDS AND USE THEREFOR” (priority 2018, published 2022).
Values after ≈ are worked out from the molar mass of the structure shown.

Legend:
[1] = tested on: Acinetobacter baumannii, Pseudomonas aeruginosa, and Escherichia coli; assay: In vitro antibacterial activity, summary statements over all strains of Experimental Example 1; type: cell-based; settings: method of Experimental Example 1
Experimental: Compounds: The compounds prepared in the above examples and comparative examples. All test compounds were dissolved and diluted with DMSO, and the final concentrations were prepared as 64, 32, 16, 8, 4, 2, 1, 0.5, 0.25, 0.125, 0.0625 μg/mL in the experiment.
Bacterial strains: 6 strains of Acinetobacter baumannii (codenames: HDBAB-YK4, HDBAB-YK7, HDBAB-YK12, HDBAB-YK16, HDBAB_OXA_7, ATCC 19606), 2 strains of Pseudomonas aeruginosa (codenames: HDBPA-YK9, HDBPA)-YK15), 1 strain of Escherichia coli (codename: CLB30048), all provided by HD Biosciences (Shanghai) Co., Ltd.
The minimum inhibitory concentration (MIC) of each compound was recorded according to the guidelines of the Clinical and Laboratory Standards Institute.

[2] = tested on: drug-resistant Acinetobacter baumannii; assay: MIC in combination with Relebactam; type: cell-based
Source text: In addition, the inventors of the present invention also tested the inhibitory activities of the compound of Example 1 and Compound C, respectively, in combination with Relebactam on drug-resistant Acinetobacter baumannii (the experimental method was the same as that in Experimental Example 1).

[3] = Pharmacokinetics of the compounds in mice; type: in vivo, BALB/c mice; settings: compared with some compounds of the present invention
Source text: Animals: male BALB/c mice, SPF grade, purchased from Changzhou Cavens Experimental Animal Co., Ltd.; 16-24 g, license number: SCXK (Su)2016-0010; 2 to 3 days of adaptation period were given before the experiment.
Instruments: API 4500 High Performance Liquid Chromatograph Coupled Triple Quadrupole Mass Spectrometer, and Analyst QS A01.01 Chromatography Workstation were both purchased from AB SCIEX of the United States; Milli-Q ultrapure water device was purchased from Millipore; CF16R XII desktop high-speed refrigerated centrifuge was purchased From Hitachi Company; Qilinbeier Vortex-5 oscillator was purchased from IKA Company of German; electric heating constant-temperature water bath was purchased from Changzhou Guohua Electric Appliance Co., Ltd.; electric pipette was purchased from Thermo Company of American; and microanalysis balance was purchased from Shanghai Mettler Co., Ltd.
2 mg of the test compound was weighed, added to physiological saline, vortexed for 2 min, and ultrasonicated for 3 min, to prepare a test solution with a concentration of 0.2 mg/mL for intravenous administration.
A single dose of 2 mg/kg of the test compound was administered to BALB/c mice via the tail vein, the dose volume being 0.1 mL/10 g. At 5 min, 15 min, 30 min, 1 h, 2 h, 4 h after administration, blood samples were collected from the orbital venous plexus into heparinized EP tubes (0.6 mL), which were temporarily placed on crushed ice.
The samples were centrifuged at 8000 rpm for 5 min. 15 μL of upper plasma were transferred to a 96-well plate. 150 μL of methanol:acetonitrile (v/v=1:1) (containing 20 ng/mL tolbutamide) was added to 15 μL of plasma, shaken for 3 min, and centrifuged at 4500 rpm for 5 min. 100 μL of supernatant was taken to a 2 mL deep well plate. 100 μL of diluent (pure water) was added. The samples were shaken for 3 min, and centrifuged at 4500 rpm for 5 min. 180 μL of the supernatant was transferred to the sample plate. The content of the compound in the supernatant sample was analyzed by LC-MS/MS, and various pharmacokinetic parameters were calculated with WinNonlin software.

[4] = tested on: clinically isolated Pseudomonas aeruginosa; assay: MIC experiment of clinically sourced bacterial strains; type: cell-based
Experimental: (§1) Compounds: the compound of Example 1 and Compound C of Comparative Example 3. Both test compounds were dissolved and diluted with DMSO, and the final concentrations were prepared as 64, 32, 16, 8, 4, 2, 1, 0.5, 0.25, 0.125, 0.0625 μg/mL in the experiment.
(§2) Bacterial strains: clinically isolated Acinetobacter baumannii, Pseudomonas aeruginosa, Klebsiella pneumoniae and Escherichia coli, all provided by HD Biosciences (Shanghai) Co., Ltd.
(§3) Medium: Trypticase soy agar (TSA) (BD BBL 211043), and Cation-adjusted Mueller Hinton broth (CAMHB) (BD BBL212322).
(§4) The experimental method was the same as that in the above Experimental Example 1.

[5] = tested on: clinically isolated Acinetobacter baumannii; assay: as above; type: cell-based; settings: for MIC: Acinetobacter baumannii
Experimental: as §1, §2, §3, §4

[6] = tested on: clinically isolated Escherichia coli; assay: as above; type: cell-based
Experimental: as §1, §2, §3, §4

[7] = tested on: clinically isolated Klebsiella pneumoniae; assay: as above; type: cell-based; settings: Klebsiella pneumoniae
Experimental: as §1, §2, §3, §4

Compound: CC1(C)[C@H](NC(=O)/C(=N\O[C@@H](COc2ccc(-c3cn(CCCN)[n+](CC4CNC4)c3)cc2)C(=O)O)c2csc(N)n2)C(=O)N1OS(=O)(=O)[O-] [Compound C, reference compound]
- in vitro antibacterial activity (in words) [1]: weaker
- MIC ([2]; strain HDBAB-YK12, in combination with 4 μg/mL Relebactam): 8 mg/L
- MIC ([2]; strain HDBAB-YK16, in combination with 4 μg/mL Relebactam): 16 mg/L
- MIC ([2]; strain HDBAB_OXA_7, in combination with 4 μg/mL Relebactam): 16 mg/L
- bioavailability (F) (in words) [3]: weaker
- MIC ([4]; clinical strain P7): 2 mg/L (≈ 2.72 µM)
- MIC ([4]; clinical strain P43): 0.25 mg/L (≈ 0.34 µM)
- MIC ([4]; clinical strain P155): 2 mg/L (≈ 2.72 µM)
- MIC ([4]; clinical strain P157): 2 mg/L (≈ 2.72 µM)
- MIC ([4]; clinical strain P162): 2 mg/L (≈ 2.72 µM)
- MIC ([5]; clinical strain A0242702): ≤ 0.063 mg/L
- MIC ([5]; clinical strain A0244122): 2 mg/L (≈ 2.72 µM)
- MIC ([5]; clinical strain A0248164): 2 mg/L (≈ 2.72 µM)
- MIC ([5]; clinical strain A0248384): 2 mg/L (≈ 2.72 µM)
- MIC ([5]; clinical strain A0252247): 0.125 mg/L (≈ 0.17 µM)
- MIC ([5]; clinical strain A0254384): 0.125 mg/L (≈ 0.17 µM)
- MIC ([5]; clinical strain A0255830): 16 mg/L (≈ 21.7 µM)
- MIC ([5]; clinical strain A0257674): 0.125 mg/L (≈ 0.17 µM)
- MIC ([5]; clinical strain A0258522): 0.125 mg/L (≈ 0.17 µM)
- MIC ([5]; clinical strain A0262855): 0.125 mg/L (≈ 0.17 µM)
- MIC ([5]; clinical strain A0270386): 1 mg/L (≈ 1.36 µM)
- MIC ([5]; clinical strain A0272260): 0.125 mg/L (≈ 0.17 µM)
- MIC ([5]; clinical strain A0273375): 1 mg/L (≈ 1.36 µM)
- MIC ([5]; clinical strain A0273826): 16 mg/L (≈ 21.7 µM)
- MIC ([5]; clinical strain A0274925): 0.25 mg/L (≈ 0.34 µM)
- MIC ([5]; clinical strain A0283307): 0.125 mg/L (≈ 0.17 µM)
- MIC ([5]; clinical strain A0284214): 0.125 mg/L (≈ 0.17 µM)
- MIC ([5]; clinical strain A0284295): 0.125 mg/L (≈ 0.17 µM)
- MIC ([5]; clinical strain A0284552): 0.5 mg/L (≈ 0.68 µM)
- MIC ([5]; clinical strain A0285002): 2 mg/L (≈ 2.72 µM)
- MIC ([5]; clinical strain A0285050): 0.25 mg/L (≈ 0.34 µM)
- MIC ([5]; clinical strain A0285231): 2 mg/L (≈ 2.72 µM)
- MIC ([5]; clinical strain A0285299): 0.25 mg/L (≈ 0.34 µM)
- MIC ([5]; clinical strain A0285369): ≤ 0.063 mg/L
- MIC ([5]; clinical strain A0285909): 16 mg/L (≈ 21.7 µM)
- MIC ([5]; clinical strain A0286065): 2 mg/L (≈ 2.72 µM)
- MIC90 ([5]; clinically isolated Acinetobacter baumannii): 16 mg/L (≈ 21.7 µM)
- MIC ([6]; clinical strain HDB0140): 2 mg/L (≈ 2.72 µM)
- MIC ([6]; clinical strain HDB0918): 0.25 mg/L (≈ 0.34 µM)
- MIC ([6]; clinical strain HDB1120): 0.125 mg/L (≈ 0.17 µM)
- MIC ([6]; clinical strain HDB5510): 0.25 mg/L (≈ 0.34 µM)
- MIC ([6]; clinical strain HDB8244): 0.25 mg/L (≈ 0.34 µM)
- MIC ([7]; clinical strain Kp309): 0.25 mg/L (≈ 0.34 µM)
- MIC ([7]; clinical strain Kp310): ≤ 0.063 mg/L
- MIC ([7]; clinical strain Kp472): 0.125 mg/L (≈ 0.17 µM)
- MIC ([7]; clinical strain Kp510): 0.25 mg/L (≈ 0.34 µM)
